Assay results taken from US20250382344A1, “Soluble GLP1/GIP/NPY2 Receptor Triple Agonists” (Boehringer Ingelheim International GmH, priority 2024, published 2025).
Where two headings read alike, the source gives them in different places.

B1: Compound 171 (peptide)
peptide: YXEGTFTSDYSIXLERQAQXAFVRHLINKXTRQRY
modifications: Aib at positions 2, 13, 20 and 30; Lys 29 epsilon-amino group carries C20DA-gGlu-gGlu-gGlu-gGlu-gGlu-gGlu-eLys; C-terminal amide

Experiments:
[1] = target: T1, hGLP1R (Homo sapiens, UniProt P43220); experiment: hGLP1R CreLuc assay in 0.5% and 100% plasma (HEK-293 CRE-luciferase reporter cells); format: cell-based; conditions: HEK-293 reporter cells
T1 construct: expressed in transfected cells; host or cells: HEK-293 CRE-luciferase reporter cells
T1 sequence (P43220 24-463): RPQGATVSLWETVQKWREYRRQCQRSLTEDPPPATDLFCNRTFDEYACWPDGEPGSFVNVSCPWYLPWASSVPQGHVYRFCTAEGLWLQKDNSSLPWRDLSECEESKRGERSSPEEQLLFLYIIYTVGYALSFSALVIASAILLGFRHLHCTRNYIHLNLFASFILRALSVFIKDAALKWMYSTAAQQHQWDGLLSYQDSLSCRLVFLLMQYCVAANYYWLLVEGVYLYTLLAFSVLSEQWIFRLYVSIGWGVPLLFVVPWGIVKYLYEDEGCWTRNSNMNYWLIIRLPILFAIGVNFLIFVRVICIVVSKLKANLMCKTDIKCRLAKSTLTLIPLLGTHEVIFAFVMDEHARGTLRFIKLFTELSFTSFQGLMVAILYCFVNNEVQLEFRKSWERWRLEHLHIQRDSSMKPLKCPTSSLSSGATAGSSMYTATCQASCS

[2] = Solubility in 0.1 M phosphate buffer at pH 7; format: physicochemical; conditions: 0.1 M phosphate buffer at pH 7, 10 mg/mL final peptide concentration, shaking 2 hours at room temperature, peptides as TFA-salts; measured sample pH 6.5-7.0
[3] = target: T2, hGIPR (Homo sapiens, UniProt P48546); experiment: hGIPR CreLuc assay in 0.5% and 100% plasma (CHO CRE-luciferase reporter cells); format: cell-based
T2 construct: expressed in transfected cells; host or cells: CHO CRE-luciferase reporter cells
T2 sequence (P48546 22-466): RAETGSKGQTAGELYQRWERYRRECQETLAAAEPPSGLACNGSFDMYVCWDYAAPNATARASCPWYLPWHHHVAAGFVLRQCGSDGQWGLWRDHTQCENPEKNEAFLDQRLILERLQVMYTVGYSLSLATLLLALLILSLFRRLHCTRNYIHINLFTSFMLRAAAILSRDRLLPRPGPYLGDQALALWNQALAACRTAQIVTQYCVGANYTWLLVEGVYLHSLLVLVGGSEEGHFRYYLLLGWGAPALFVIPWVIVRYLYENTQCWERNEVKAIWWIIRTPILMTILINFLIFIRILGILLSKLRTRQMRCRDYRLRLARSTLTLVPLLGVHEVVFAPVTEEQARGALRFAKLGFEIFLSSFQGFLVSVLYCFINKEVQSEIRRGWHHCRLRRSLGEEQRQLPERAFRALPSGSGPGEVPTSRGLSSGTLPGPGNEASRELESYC

[4] = Mouse PK after intravenous application; format: in vivo; conditions: plasma, male NMRI mice, intravenous 30-60 nmol/kg, non-compartmental analysis
Procedure, shortened: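 Male NMRI mice (30–40 g) dosed 30-60 nmol/kg by tail vein in 50 mM phosphate buffer pH 7.4/3.5% mannitol. Saphenous EDTA blood sampled from conscious animals up to 56 h; plasma peptide quantified by LC-MS. Parameters from non-compartmental analysis of individual profiles.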

[5] = target: T3, hNPY2R (Homo sapiens, UniProt P49146); experiment: hNPY2R CreLuc assay in 0.5% and 100% plasma (HEK-293 CRE-luciferase reporter cells); format: cell-based; conditions: HEK-293 reporter cells
T3 construct: expressed in transfected cells; host or cells: HEK-293 CRE-luciferase reporter cells
T3 sequence (P49146 1-381): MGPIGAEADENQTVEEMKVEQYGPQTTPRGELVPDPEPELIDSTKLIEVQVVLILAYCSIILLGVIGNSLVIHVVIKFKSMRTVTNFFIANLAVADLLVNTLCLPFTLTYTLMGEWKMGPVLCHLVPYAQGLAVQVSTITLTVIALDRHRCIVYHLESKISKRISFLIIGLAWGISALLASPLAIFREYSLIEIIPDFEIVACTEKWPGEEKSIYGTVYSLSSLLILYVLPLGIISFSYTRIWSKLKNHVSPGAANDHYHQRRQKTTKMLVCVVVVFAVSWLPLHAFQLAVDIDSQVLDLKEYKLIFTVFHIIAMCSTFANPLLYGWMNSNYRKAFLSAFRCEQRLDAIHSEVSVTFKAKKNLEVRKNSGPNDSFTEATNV

[6] = system: Normal NMRI Mice; experiment: Effect on acute food intake in normal NMRI mice; format: in vivo; conditions: male NMRI mice, single subcutaneous dose 100 nmol/kg, 24 hours food intake normalized to vehicle group
Protocol: Male NMRI mice were obtained from Janvier (Janvier Labs, France) or from Charles River (Charles River Research Models & Services Germany GmbH) at the age of 3 weeks. The animals get a microchip (Datamars, Slim Microchip T-SL) for individual identification after delivery. They were housed with 4 mice per cage under a 12/12 dark-light cycle, light off at 3 p.m. Room temperature was controlled to 21° C.+/−1° C. and humidity 60%+/−20%. Mice had ad libitum access to regular rodent chow (KLIBA Nafag 3040 or Altromin 1324, Brogaarden, Denmark) and tap water.
Latest transfer into the HM2-System of MBRose, Denmark (real-time monitoring system of food- and water intake) of the animals 5 days before study start, to allow acclimatization to experimental conditions. As the animals were uniquely identified with the microchips, each individual animal was identified by its own microchip upon entry and exit from the food channel via antennae. Randomization of the mice for each study group (n=8; age earliest 6 weeks old) was based on food intake (middle of last three days 24 h-interval) and bodyweight directly before start of the study. A vehicle treated (50 mM phosphate buffer pH 7.4 with 3.5% mannitol) group was included in each experiment. To have the same nutrition standard for each animal the food access was locked eight hours before dark phase. One hour before night, the animals were once treated subcutaneously with the test peptide. Food intake was reported hourly for a period of 24 hours.

[7] = target: T4, human GIP receptor (human, UniProt P48546 22-466); experiment: cell-based or functional assay
T4 sequence (looked up): T2 sequence (P48546 22-466)

[8] = target: T5, human neuropeptide Y2 receptor (human, UniProt P49146 1-381); experiment: cell-based or functional assay
T5 sequence (looked up): T3 sequence (P49146 1-381)

[9] = 100% human plasma, read-out: hGLP1R 100% hP
[10] = 0.5% human plasma, read-out: hNPY2R 0.5% hP
[11] = 0.5% human plasma, read-out: hGIPR 0.5% hP

| Molecule | EC50 [1, 9] | solubility at 2 h [2] | EC50 ([3]; 100% human plasma, read-out: hGIPR 100% hP) | MRT [4] | EC50 [5, 10] | Acute Food Intake 24 hours 100 nmol/kg [% CTL] [6] | EC50 ([1]; 0.5% human plasma, read-out: hGLP1R 0.5% hP) | EC50 [3, 11] | EC50 ([5]; 100% human plasma, read-out: hNPY2R 100% hP) | EC50, CreLuc luciferase reporter assay, hGIPR 0.5% hP [7] | EC50, CreLuc luciferase reporter assay, hNPY2R 0.5% hP [8] | EC50, CreLuc luciferase reporter assay, hNPY2R 100% hP [8] |
| --- | --- | --- | --- | --- | --- | --- | --- | --- | --- | --- | --- | --- |
| CC[C@H](C)[C@H](NC(=O)[C@H](Cc1ccccc1)NC(=O)[C@H](C)NC(=O)C(C)(C)NC(=O)[C@H](CCC(N)=O)NC(=O)[C@H](C)NC(=O)[C@H](CCC(N)=O)NC(=O)[C@H](CCCCN)NC(=O)[C@H](CCC(=O)O)NC(=O)[C@H](CC(C)C)NC(=O)[C@](C)(CC(C)C)NC(=O)[C@@H](NC(=O)[C@H](CO)NC(=O)[C@H](Cc1ccc(O)cc1)NC(=O)[C@H](CC(=O)O)NC(=O)[C@H](CO)NC(=O)[C@@H](NC(=O)[C@H](Cc1ccccc1)NC(=O)[C@@H](NC(=O)CNC(=O)[C@H](CCC(=O)O)NC(=O)C(C)(C)NC(=O)[C@@H](N)Cc1ccc(O)cc1)[C@@H](C)O)[C@@H](C)O)[C@@H](C)CC)C(=O)N[C@@H](CCCNC(=N)N)C(=O)N[C@@H](Cc1c[nH]cn1)C(=O)N[C@@H](CC(C)C)C(=O)N[C@H](C(=O)N[C@@H](CC(N)=O)C(=O)N[C@@H](CCCCNC(=O)[C@@H](N)CCCCNC(=O)CC[C@H](NC(=O)CC[C@H](NC(=O)CC[C@H](NC(=O)CC[C@H](NC(=O)CC[C@H](NC(=O)CC[C@H](NC(=O)CCCCCCCCCCCCCCCCC(=O)O)C(=O)O)C(=O)O)C(=O)O)C(=O)O)C(=O)O)C(=O)O)C(=O)NC(C)(C)C(=O)N[C@H](C(=O)N[C@@H](CCCNC(=N)N)C(=O)N[C@@H](CCC(N)=O)C(=O)N[C@@H](CCCNC(=N)N)C(=O)N[C@@H](Cc1ccc(O)cc1)C(N)=O)[C@@H](C)O)[C@@H](C)CC [Compound 76, Y-Aib-E-G-T-F-T-S-D-Y-S-I-aMeL-L-E-K-Q-A-Q-Aib-A-F-I-R-H-L-I-N-K(1,3)-Aib-T-R-Q-R-Y-NH2.C18DA-gGlu-gGlu-gGlu-gGlu-gGlu-gGlu-eLys(1,2)] | 0.3 nM | 8900 µg/mL | 0.5 nM | 6.7 h | 7.2 nM | 55 % CTL | – | – | – | – | – | – |
| CC[C@H](C)[C@H](NC(=O)[C@H](CC(C)C)NC(=O)[C@H](Cc1c[nH]cn1)NC(=O)[C@H](CCCNC(=N)N)NC(=O)[C@@H](NC(=O)[C@H](Cc1ccccc1)NC(=O)[C@H](C)NC(=O)C(C)(C)NC(=O)[C@H](CCC(N)=O)NC(=O)[C@H](C)NC(=O)[C@H](CCC(N)=O)NC(=O)[C@H](CCCCN)NC(=O)[C@H](CCC(=O)O)NC(=O)[C@H](CC(C)C)NC(=O)C(C)(C)NC(=O)[C@@H](NC(=O)[C@H](CO)NC(=O)[C@H](Cc1ccc(O)cc1)NC(=O)[C@H](CC(=O)O)NC(=O)[C@H](CO)NC(=O)[C@@H](NC(=O)[C@H](Cc1ccccc1)NC(=O)[C@@H](NC(=O)CNC(=O)[C@H](CCC(=O)O)NC(=O)C(C)(C)NC(=O)[C@@H](N)Cc1ccc(O)cc1)[C@@H](C)O)[C@@H](C)O)[C@@H](C)CC)C(C)C)C(=O)N[C@@H](CC(N)=O)C(=O)N[C@@H](CCCCNC(=O)[C@@H](N)CCCCNC(=O)CC[C@H](NC(=O)CC[C@H](NC(=O)CC[C@H](NC(=O)CC[C@H](NC(=O)CC[C@H](NC(=O)CC[C@H](NC(=O)CCCCCCCCCCCCCCCCC(=O)O)C(=O)O)C(=O)O)C(=O)O)C(=O)O)C(=O)O)C(=O)O)C(=O)NC(C)(C)C(=O)N[C@H](C(=O)N[C@@H](CCCNC(=N)N)C(=O)N[C@@H](CCC(N)=O)C(=O)N[C@@H](CCCNC(=N)N)C(=O)N[C@@H](Cc1ccc(O)cc1)C(N)=O)[C@@H](C)O [Compound 92, Y-Aib-E-G-T-F-T-S-D-Y-S-I-Aib-L-E-K-Q-A-Q-Aib-A-F-V-R-H-L-I-N-K(1,3)-Aib-T-R-Q-R-Y-NH2.C18DA-gGlu-gGlu-gGlu-gGlu-gGlu-gGlu-eLys(1,2)] | 2 nM | 6700 µg/mL | – | 7.5 h | 9.9 nM | 58 % CTL | 0.4 nM | 0.2 nM | – | – | – | – |
| CC[C@H](C)[C@H](NC(=O)[C@H](CC(C)C)NC(=O)[C@H](Cc1c[nH]cn1)NC(=O)[C@H](CCCNC(=N)N)NC(=O)[C@@H](NC(=O)[C@H](Cc1ccccc1)NC(=O)[C@H](C)NC(=O)C(C)(C)NC(=O)[C@H](CCC(N)=O)NC(=O)[C@H](C)NC(=O)[C@H](CCC(N)=O)NC(=O)[C@H](CCCCN)NC(=O)[C@H](CCC(=O)O)NC(=O)[C@H](CC(C)C)NC(=O)C(C)(C)NC(=O)[C@@H](NC(=O)[C@H](CO)NC(=O)[C@H](Cc1ccc(O)cc1)NC(=O)[C@H](CC(=O)O)NC(=O)[C@H](CO)NC(=O)[C@@H](NC(=O)[C@H](Cc1ccccc1)NC(=O)[C@@H](NC(=O)CNC(=O)[C@H](CCC(=O)O)NC(=O)C(C)(C)NC(=O)[C@@H](N)Cc1ccc(O)cc1)[C@@H](C)O)[C@@H](C)O)[C@@H](C)CC)C(C)C)C(=O)N[C@@H](CC(N)=O)C(=O)N[C@@H](CCCCNC(=O)[C@@H](N)CCCCNC(=O)CC[C@H](NC(=O)CC[C@H](NC(=O)CC[C@H](NC(=O)CC[C@H](NC(=O)CC[C@H](NC(=O)CC[C@H](NC(=O)CCCCCCCCCCCCCCCCCCC(=O)O)C(=O)O)C(=O)O)C(=O)O)C(=O)O)C(=O)O)C(=O)O)C(=O)NC(C)(C)C(=O)N[C@H](C(=O)N[C@@H](CCCNC(=N)N)C(=O)N[C@@H](CCC(N)=O)C(=O)N[C@@H](CCCNC(=N)N)C(=O)N[C@@H](Cc1ccc(O)cc1)C(N)=O)[C@@H](C)O [Compound 125, Y-Aib-E-G-T-F-T-S-D-Y-S-I-Aib-L-E-K-Q-A-Q-Aib-A-F-V-R-H-L-I-N-K(1,3)-Aib-T-R-Q-R-Y-NH2.C20DA-gGlu-gGlu-gGlu-gGlu-gGlu-gGlu-eLys(1,2)] | – | 6700 µg/mL | – | 21.2 h | – | 55 % CTL | – | 0.4 nM | 60.8 nM | – | – | – |
| B1 | – | – | – | – | – | – | – | – | – | 0.4 nM | 9.9 nM | 95.3 nM |
